The kinase profiling compilation of Christmann-Franck et al. (2016)
Where “and” joins values, the source holds several entries; their conditions need not be identical. Identical values can stand only once.

Legend:
Assay in all cases: radiometric filter-binding kinase assay, Kinase HotSpot
Conditions in all cases: compound 0.5 µM; ATP 10 µM
[1] = target: ABL2 (human) (UniProt P42684)
[2] = target: BMX (human) (UniProt P51813)
[3] = target: BTK (human) (UniProt Q06187)
[4] = target: CAMK1D (human) (UniProt Q8IU85)
[5] = target: CAMK2B (human) (UniProt Q13554)
[6] = target: CDK4 CCND3 (human) (UniProt P30281+P11802)
[7] = target: CHUK (human) (UniProt O15111)
[8] = target: CSNK1G1 (human) (UniProt Q9HCP0)
[9] = target: DCLK2 (human) (UniProt Q8N568)
[10] = target: DSTYK (human) (UniProt Q6XUX3)
[11] = target: DYRK4 (human) (UniProt Q9NR20)
[12] = target: EPHA1 (human) (UniProt P21709)
[13] = target: EPHA5 (human) (UniProt P54756)
[14] = target: EPHA8 (human) (UniProt P29322)
[15] = target: ERBB4 (human) (UniProt Q15303)
[16] = target: GRK4 (human) (UniProt P32298)
[17] = target: GRK5 (human) (UniProt P34947)
[18] = target: HCK (human) (UniProt P08631)
[19] = target: HIPK1 (human) (UniProt Q86Z02)
[20] = target: INSRR (human) (UniProt P14616)
[21] = target: JAK2 JH1 JH2 (human) (UniProt O60674)
[22] = target: LRRK2 (human) (UniProt Q5S007)
[23] = target: MAP2K2 (human) (UniProt P36507)
[24] = target: MAP3K3 (human) (UniProt Q99759)
[25] = target: MAP4K5 (human) (UniProt Q9Y4K4)
[26] = target: MAPK12 (human) (UniProt P53778)
[27] = target: MAPK8 (human) (UniProt P45983)
[28] = target: MARK2 (human) (UniProt Q7KZI7)
[29] = target: NEK1 (human) (UniProt Q96PY6)
[30] = target: NEK4 (human) (UniProt P51957)
[31] = target: NEK6 (human) (UniProt Q9HC98)
[32] = target: NEK7 (human) (UniProt Q8TDX7)
[33] = target: NEK9 (human) (UniProt Q8TD19)
[34] = target: PRKCD (human) (UniProt Q05655)
[35] = target: PRKCG (human) (UniProt P05129)
[36] = target: PRKD1 (human) (UniProt Q15139)
[37] = target: PRKG1 (human) (UniProt Q13976)
[38] = target: RET (human) (UniProt P07949)
[39] = target: SGK2 (human) (UniProt Q9HBY8)
[40] = target: SRPK2 (human) (UniProt P78362)
[41] = target: TAOK3 (human) (UniProt Q9H2K8)
[42] = target: YES1 (human) (UniProt P07947)

PRKG1 (human), sequence (Q13976 whole entry, looked up): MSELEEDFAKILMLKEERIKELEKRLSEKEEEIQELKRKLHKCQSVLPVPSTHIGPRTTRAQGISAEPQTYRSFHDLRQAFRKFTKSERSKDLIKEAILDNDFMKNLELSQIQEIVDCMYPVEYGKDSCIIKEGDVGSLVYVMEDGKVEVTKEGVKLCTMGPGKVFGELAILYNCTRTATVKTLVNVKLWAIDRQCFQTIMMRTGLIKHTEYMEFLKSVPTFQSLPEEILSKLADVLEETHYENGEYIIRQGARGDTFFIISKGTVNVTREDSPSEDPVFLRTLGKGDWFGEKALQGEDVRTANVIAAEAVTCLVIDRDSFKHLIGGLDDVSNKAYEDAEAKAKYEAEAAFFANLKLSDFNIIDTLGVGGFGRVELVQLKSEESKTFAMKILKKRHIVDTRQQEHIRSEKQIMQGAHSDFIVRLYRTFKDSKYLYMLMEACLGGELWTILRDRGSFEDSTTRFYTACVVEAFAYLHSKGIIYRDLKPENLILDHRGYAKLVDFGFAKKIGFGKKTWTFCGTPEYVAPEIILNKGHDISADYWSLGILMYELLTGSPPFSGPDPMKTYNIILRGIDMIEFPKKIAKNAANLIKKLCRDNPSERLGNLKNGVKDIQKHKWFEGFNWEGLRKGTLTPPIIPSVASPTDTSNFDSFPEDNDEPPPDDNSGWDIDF
RET (human), sequence (P07949 whole entry, looked up): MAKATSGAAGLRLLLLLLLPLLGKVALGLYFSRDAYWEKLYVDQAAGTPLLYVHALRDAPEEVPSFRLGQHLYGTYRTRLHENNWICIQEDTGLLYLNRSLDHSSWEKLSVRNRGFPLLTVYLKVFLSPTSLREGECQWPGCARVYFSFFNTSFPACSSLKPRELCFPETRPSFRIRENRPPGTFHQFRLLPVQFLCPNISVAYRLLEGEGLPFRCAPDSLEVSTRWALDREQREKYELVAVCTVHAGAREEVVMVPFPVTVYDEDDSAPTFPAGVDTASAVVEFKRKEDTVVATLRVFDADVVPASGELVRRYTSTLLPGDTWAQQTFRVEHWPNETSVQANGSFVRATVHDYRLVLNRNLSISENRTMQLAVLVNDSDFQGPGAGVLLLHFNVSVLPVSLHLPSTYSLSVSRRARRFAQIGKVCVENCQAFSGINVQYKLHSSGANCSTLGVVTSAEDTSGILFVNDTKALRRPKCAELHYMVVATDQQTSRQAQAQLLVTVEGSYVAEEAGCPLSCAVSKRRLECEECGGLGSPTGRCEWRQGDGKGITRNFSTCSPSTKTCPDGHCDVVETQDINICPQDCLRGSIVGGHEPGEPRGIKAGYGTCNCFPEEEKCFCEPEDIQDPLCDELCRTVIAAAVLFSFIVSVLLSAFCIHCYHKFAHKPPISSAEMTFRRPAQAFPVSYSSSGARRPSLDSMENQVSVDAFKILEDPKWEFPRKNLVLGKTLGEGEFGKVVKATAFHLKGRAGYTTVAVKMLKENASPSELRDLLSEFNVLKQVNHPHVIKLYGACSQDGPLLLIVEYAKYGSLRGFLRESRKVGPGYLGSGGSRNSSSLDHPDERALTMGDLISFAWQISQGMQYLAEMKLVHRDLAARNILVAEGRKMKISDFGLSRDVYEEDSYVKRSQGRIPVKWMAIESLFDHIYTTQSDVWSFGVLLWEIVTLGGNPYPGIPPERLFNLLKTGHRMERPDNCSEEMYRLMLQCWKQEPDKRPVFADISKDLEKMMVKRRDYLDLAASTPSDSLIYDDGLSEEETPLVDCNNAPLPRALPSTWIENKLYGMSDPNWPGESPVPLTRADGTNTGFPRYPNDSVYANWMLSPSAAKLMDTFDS
SRPK2 (human), sequence (P78362 whole entry, looked up): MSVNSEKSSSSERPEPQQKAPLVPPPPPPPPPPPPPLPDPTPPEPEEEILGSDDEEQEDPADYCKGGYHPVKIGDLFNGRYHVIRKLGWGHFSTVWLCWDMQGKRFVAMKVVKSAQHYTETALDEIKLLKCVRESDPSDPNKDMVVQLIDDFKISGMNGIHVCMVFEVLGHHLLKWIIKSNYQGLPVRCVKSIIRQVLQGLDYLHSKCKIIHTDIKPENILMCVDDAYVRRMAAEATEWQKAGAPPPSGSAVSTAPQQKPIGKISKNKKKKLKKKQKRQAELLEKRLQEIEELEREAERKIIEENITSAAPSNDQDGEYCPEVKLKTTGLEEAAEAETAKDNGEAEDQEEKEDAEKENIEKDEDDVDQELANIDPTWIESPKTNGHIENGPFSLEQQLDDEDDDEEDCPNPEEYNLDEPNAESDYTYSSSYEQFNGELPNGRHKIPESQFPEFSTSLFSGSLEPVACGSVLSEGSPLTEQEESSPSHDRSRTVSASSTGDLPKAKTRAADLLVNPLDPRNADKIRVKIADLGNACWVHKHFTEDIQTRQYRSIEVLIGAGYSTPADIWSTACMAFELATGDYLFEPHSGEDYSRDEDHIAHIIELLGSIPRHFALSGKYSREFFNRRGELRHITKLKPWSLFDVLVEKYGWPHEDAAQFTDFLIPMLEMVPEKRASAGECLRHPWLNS
MAP4K5 (human), sequence (Q9Y4K4 whole entry, looked up): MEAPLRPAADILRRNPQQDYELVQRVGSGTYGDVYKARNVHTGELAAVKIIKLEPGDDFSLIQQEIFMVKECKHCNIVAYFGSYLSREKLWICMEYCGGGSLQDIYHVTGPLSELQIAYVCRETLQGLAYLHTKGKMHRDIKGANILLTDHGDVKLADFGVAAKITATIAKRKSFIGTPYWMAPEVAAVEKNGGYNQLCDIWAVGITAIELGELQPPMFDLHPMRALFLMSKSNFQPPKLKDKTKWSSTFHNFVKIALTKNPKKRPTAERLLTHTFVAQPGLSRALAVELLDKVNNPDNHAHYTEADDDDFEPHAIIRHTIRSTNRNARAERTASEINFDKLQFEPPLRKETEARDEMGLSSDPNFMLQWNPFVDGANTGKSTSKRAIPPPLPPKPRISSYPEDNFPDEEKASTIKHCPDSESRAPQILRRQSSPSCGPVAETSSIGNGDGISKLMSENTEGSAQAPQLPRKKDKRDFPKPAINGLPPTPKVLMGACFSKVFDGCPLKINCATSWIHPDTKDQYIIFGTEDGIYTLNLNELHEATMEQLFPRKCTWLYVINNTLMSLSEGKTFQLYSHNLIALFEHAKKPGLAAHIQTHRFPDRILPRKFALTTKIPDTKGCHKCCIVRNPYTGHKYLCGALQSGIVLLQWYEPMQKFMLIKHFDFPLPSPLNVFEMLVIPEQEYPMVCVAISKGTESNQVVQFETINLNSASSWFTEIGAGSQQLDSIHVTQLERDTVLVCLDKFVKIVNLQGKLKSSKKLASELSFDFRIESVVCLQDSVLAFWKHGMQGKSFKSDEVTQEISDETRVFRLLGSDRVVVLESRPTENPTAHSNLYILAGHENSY
MAPK8 (human), sequence (P45983 whole entry, looked up): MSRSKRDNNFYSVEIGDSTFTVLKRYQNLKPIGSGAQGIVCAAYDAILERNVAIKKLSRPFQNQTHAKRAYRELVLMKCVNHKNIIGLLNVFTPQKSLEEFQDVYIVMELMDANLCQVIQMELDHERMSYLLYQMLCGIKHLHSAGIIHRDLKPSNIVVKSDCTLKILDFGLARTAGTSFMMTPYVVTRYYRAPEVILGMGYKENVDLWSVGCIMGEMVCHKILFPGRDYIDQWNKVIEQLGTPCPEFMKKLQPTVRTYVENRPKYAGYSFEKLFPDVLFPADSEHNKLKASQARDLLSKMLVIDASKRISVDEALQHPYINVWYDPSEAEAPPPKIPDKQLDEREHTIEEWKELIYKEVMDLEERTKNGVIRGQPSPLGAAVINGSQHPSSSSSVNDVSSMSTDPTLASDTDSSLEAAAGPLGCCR
MAP2K2 (human), sequence (P36507 whole entry, looked up): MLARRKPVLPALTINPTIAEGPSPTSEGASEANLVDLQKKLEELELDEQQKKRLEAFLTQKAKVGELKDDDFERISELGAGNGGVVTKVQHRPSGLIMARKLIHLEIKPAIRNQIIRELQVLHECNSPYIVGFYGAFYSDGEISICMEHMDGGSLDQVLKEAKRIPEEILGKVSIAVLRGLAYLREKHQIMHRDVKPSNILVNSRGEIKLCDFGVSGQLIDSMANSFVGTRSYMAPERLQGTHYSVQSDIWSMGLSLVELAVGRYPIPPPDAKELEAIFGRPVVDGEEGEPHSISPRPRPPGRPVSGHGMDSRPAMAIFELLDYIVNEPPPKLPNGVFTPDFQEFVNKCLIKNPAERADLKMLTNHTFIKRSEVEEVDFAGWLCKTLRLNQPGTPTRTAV
NEK4 (human), sequence (P51957 whole entry, looked up): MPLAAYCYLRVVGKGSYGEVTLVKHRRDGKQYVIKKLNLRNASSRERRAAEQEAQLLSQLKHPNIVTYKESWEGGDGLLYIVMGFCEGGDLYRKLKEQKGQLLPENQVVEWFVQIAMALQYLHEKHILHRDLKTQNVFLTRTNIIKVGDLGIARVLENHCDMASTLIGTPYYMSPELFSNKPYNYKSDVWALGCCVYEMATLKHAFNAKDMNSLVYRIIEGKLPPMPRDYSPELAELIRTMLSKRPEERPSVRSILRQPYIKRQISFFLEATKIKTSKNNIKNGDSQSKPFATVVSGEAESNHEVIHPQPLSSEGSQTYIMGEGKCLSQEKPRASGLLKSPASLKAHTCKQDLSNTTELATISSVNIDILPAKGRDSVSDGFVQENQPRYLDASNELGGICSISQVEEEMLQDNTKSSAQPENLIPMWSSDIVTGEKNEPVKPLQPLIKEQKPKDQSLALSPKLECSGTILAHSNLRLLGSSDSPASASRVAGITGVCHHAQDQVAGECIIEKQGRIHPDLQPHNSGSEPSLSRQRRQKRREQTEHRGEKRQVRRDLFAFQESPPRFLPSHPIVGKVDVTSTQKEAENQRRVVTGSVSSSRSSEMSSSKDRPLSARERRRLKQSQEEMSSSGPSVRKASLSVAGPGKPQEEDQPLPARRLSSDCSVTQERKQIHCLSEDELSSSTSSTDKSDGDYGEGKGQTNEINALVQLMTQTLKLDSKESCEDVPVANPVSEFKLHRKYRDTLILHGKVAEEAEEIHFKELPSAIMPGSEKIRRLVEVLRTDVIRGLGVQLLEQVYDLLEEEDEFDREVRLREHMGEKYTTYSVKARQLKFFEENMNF

Compound: O=C1Nc2ccccc2/C1=C\c1c(Cl)[nH]c2ccccc12
- residual activity [1]: 91.4%
- residual activity [2]: 99.8%
- residual activity [3]: 94.6%
- residual activity [4]: 102%
- residual activity [5]: 108%
- residual activity [6]: 97.4%
- residual activity [7]: 94.2%
- residual activity [8]: 99.3%
- residual activity [9]: 93.5%
- residual activity [10]: 95.7%
- residual activity [11]: 97.4%
- residual activity [12]: 98.5%
- residual activity [13]: 83.4%
- residual activity [14]: 103%
- residual activity [15]: 103%
- residual activity [16]: 102%
- residual activity [17]: 109%
- residual activity [18]: 98.5%
- residual activity [19]: 100%
- residual activity [20]: 93.7%
- residual activity [21]: 103%
- residual activity [22]: 102%
- residual activity [23]: 98.7%
- residual activity [24]: 112%
- residual activity [25]: 95%
- residual activity [26]: 93%
- residual activity [27]: 93.5%
- residual activity [28]: 94.7%
- residual activity [29]: 96.7%
- residual activity [30]: 97.7%
- residual activity [31]: 96.5%
- residual activity [32]: 97.6%
- residual activity [33]: 94.2%
- residual activity [34]: 88.4%
- residual activity [35]: 89.2%
- residual activity [36]: 89.5%
- residual activity [37]: 92.5% and 93.6%
- residual activity [38]: 93%
- residual activity [39]: 103%
- residual activity [40]: 94.4%
- residual activity [41]: 93.9%
- residual activity [42]: 93.9%

Compound: Nc1n[nH]c2nnc(-c3c(-c4ccccc4)nn4ccccc34)cc12
- residual activity [1]: 57.5%
- residual activity [2]: 84.4%
- residual activity [3]: 93.6%
- residual activity [4]: 95.9%
- residual activity [5]: 102%
- residual activity [6]: 100%
- residual activity [7]: 97.5%
- residual activity [8]: 109%
- residual activity [9]: 100%
- residual activity [10]: 95.9%
- residual activity [11]: 95.3%
- residual activity [12]: 92.6%
- residual activity [13]: 101%
- residual activity [14]: 100%
- residual activity [15]: 91.4%
- residual activity [16]: 103%
- residual activity [17]: 106%
- residual activity [18]: 91.1%
- residual activity [19]: 99.7%
- residual activity [20]: 95.7%
- residual activity [21]: 97.1%
- residual activity [22]: 91.8%
- residual activity [23]: 99.4%
- residual activity [24]: 110%
- residual activity [25]: 50.3%
- residual activity [26]: 104%
- residual activity [27]: 98%
- residual activity [28]: 104%
- residual activity [29]: 109%
- residual activity [30]: 88.4%
- residual activity [31]: 95.6%
- residual activity [32]: 95.3%
- residual activity [33]: 93.4%
- residual activity [34]: 31.2%
- residual activity [35]: 103%
- residual activity [36]: 68.4%
- residual activity [37]: 89.5% and 93.6%
- residual activity [38]: 93.7%
- residual activity [39]: 98.8%
- residual activity [40]: 73.8%
- residual activity [41]: 101%
- residual activity [42]: 91.1%

Compound: CC(C)n1cnc2c(Nc3cccc(Cl)c3)nc(NCCO)nc21
- residual activity [1]: 60.7%
- residual activity [2]: 92.5%
- residual activity [3]: 86.3%
- residual activity [4]: 98.1%
- residual activity [5]: 95.9%
- residual activity [6]: 93.3%
- residual activity [7]: 96.1%
- residual activity [8]: 16%
- residual activity [9]: 97.8%
- residual activity [10]: 97%
- residual activity [11]: 91.2%
- residual activity [12]: 94.1%
- residual activity [13]: 91.7%
- residual activity [14]: 98.2%
- residual activity [15]: 101%
- residual activity [16]: 93.5%
- residual activity [17]: 99.4%
- residual activity [18]: 78%
- residual activity [19]: 99.8%
- residual activity [20]: 82.5%
- residual activity [21]: 101%
- residual activity [22]: 72.8%
- residual activity [23]: 97.6%
- residual activity [24]: 97.4%
- residual activity [25]: 81.5%
- residual activity [26]: 102%
- residual activity [27]: 94.8%
- residual activity [28]: 98.7%
- residual activity [29]: 90.4%
- residual activity [30]: 89.1%
- residual activity [31]: 101%
- residual activity [32]: 93.9%
- residual activity [33]: 81.1%
- residual activity [34]: 89.1%
- residual activity [35]: 93.6%
- residual activity [36]: 99.2%
- residual activity [37]: 92.2% and 98.1%
- residual activity [38]: 82.9%
- residual activity [39]: 97.4%
- residual activity [40]: 37.1%
- residual activity [41]: 91.8%
- residual activity [42]: 33.7%

Compound: COc1cc2ncnc(Nc3ccc(F)c(Cl)c3)c2cc1OCCCN1CCOCC1
- residual activity [1]: 72%
- residual activity [2]: 102%
- residual activity [3]: 60.6%
- residual activity [4]: 88.6%
- residual activity [5]: 95.4%
- residual activity [6]: 101%
- residual activity [7]: 94.9%
- residual activity [8]: 99.5%
- residual activity [9]: 101%
- residual activity [10]: 101%
- residual activity [11]: 105%
- residual activity [12]: 87.4%
- residual activity [13]: 95.8%
- residual activity [14]: 84.5%
- residual activity [15]: 24.2%
- residual activity [16]: 91%
- residual activity [17]: 94.9%
- residual activity [18]: 73.3%
- residual activity [19]: 97.6%
- residual activity [20]: 112%
- residual activity [21]: 99.8%
- residual activity [22]: 108%
- residual activity [23]: 102%
- residual activity [24]: 107%
- residual activity [25]: 80%
- residual activity [26]: 97.5%
- residual activity [27]: 93.1%
- residual activity [28]: 119%
- residual activity [29]: 90.4%
- residual activity [30]: 103%
- residual activity [31]: 89.9%
- residual activity [32]: 96.9%
- residual activity [33]: 99.3%
- residual activity [34]: 106%
- residual activity [35]: 84.2%
- residual activity [36]: 85.4%
- residual activity [37]: 103% and 87.5%
- residual activity [38]: 76.9%
- residual activity [39]: 117%
- residual activity [40]: 99.5%
- residual activity [41]: 99.5%
- residual activity [42]: 74.4%
